Results as given in patent US9302999B2, “Substituted triazoles as herbicides” (E. I. DU PONT DE NEMOURS AND COMPANY, priority 2012, dated 2016).

Legend:
Assay type in all cases: in vivo
[1] = tested on: arrowleaf sida (Sida rhombifolia); test: Test F pre-/postemergence: arrowleaf sida
Outline: (§1)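 0–100 visual control scores, taken 14–21 d after application in the greenhouse. Preemergence treatment was made to silt loam soil at sowing. Postemergence sprays hit 1- to 4-leaf plants (2–18 cm) in peat/vermiculite mix. Surfactant-containing non-phytotoxic solvent served as the vehicle.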

[2] = tested on: oat, wild (wild oat, Avena fatua); test: Test D pre-/postemergence: oat, wild
Outline: (§2)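 Scores run from 0 (no effect) to 100 (complete control), assigned by visual comparison with controls after 14 to 21 days in a controlled environment. Both preemergence application to silt loam and postemergence application to 1- to 4-leaf plants were tested.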

[3] = tested on: chickweed (common chickweed, Stellaria media); test: Test D pre-/postemergence: chickweed
Outline: as §2

[4] = tested on: dayflower, VA (Virginia (VA) dayflower, Commelina virginica); test: Test F pre-/postemergence: dayflower, VA
Outline: as §1

[5] = Preemergence, 62 g ai/ha, scale 0 to 100
[6] = Preemergence, 125 g ai/ha, scale 0 to 100
[7] = Preemergence, 250 g ai/ha, scale 0 to 100
[8] = Postemergence, 31 g ai/ha, scale 0 to 100 (0 no effect, 100 complete control)
[9] = Postemergence, 62 g ai/ha, scale 0 to 100 (0 no effect, 100 complete control)
[10] = Postemergence, 125 g ai/ha, scale 0 to 100, 0 no effect, 100 complete control
[11] = Postemergence, 16 g ai/ha, scale 0 to 100
[12] = Preemergence, 16 g ai/ha, scale 0 to 100, 0 no effect, 100 complete control
[13] = Preemergence, 31 g ai/ha, scale 0 to 100, 0 no effect, 100 complete control
[14] = Postemergence, 8 g ai/ha, scale 0 to 100
[15] = Postemergence, 31 g ai/ha, scale 0 to 100
[16] = Postemergence, 62 g ai/ha, scale 0 to 100
[17] = Postemergence, 125 g ai/ha, scale 0 to 100
[18] = Preemergence, 8 g ai/ha, scale 0 to 100, 0 no effect, 100 complete control
[19] = Postemergence, 250 g ai/ha, scale 0 to 100

Structure (SMILES)	Plant response rating, Arrowleaf Sida [1, 5]	Plant response rating, Arrowleaf Sida [1, 6]	Plant response rating, Arrowleaf Sida [1, 7]	Plant response rating: Oat, Wild [2, 8]	Plant response rating: Oat, Wild [2, 9]	Plant response rating: Oat, Wild [2, 10]	Plant response rating, Oat, Wild [2, 11]	Plant response rating, Oat, Wild [2, 12]	Plant response rating, Oat, Wild [2, 13]	Plant response rating, Oat, Wild [2, 5]	Plant response rating, Oat, Wild [2, 6]	Plant response rating: Chickweed [3, 8]	Plant response rating: Chickweed [3, 9]	Plant response rating: Chickweed [3, 10]	Plant response rating, Chickweed [3, 11]	Plant response rating, Chickweed [3, 12]	Plant response rating, Chickweed [3, 13]	Plant response rating, Chickweed [3, 5]	Plant response rating, Dayflower, VA [4, 5]	Plant response rating, Dayflower, VA [4, 6]	also measured
CCc1nn(-c2ccc(C(F)(F)F)cc2)nc1Cc1ccnc(C(F)(F)F)c1 [Compound 155]	10	40	75	20	55	75	10	5	50	15	60	70	75	100	65	35	50	100	20	35	Plant response rating, Chickweed [3, 6]: 100; Plant response rating, Dayflower, VA [4, 7]: 60
CCOc1nn(-c2ccc(F)cc2)nc1Cc1ccnc(C(F)(F)F)c1 [Compound 196, 4-[[5-ethoxy-2-(4-fluorophenyl)-2H-1,2,3-triazol-4-yl]methyl]-2-(trifluoromethyl)pyridine]	15	15	–	50	45	70	15	25	30	75	100	85	95	100	70	50	65	100	50	65	Plant response rating, Arrowleaf Sida [1, 14]: 80; Plant response rating, Arrowleaf Sida [1, 11]: 90; Plant response rating, Arrowleaf Sida [1, 15]: 90; Plant response rating, Arrowleaf Sida [1, 16]: 95; Plant response rating, Arrowleaf Sida [1, 17]: 95; Plant response rating, Arrowleaf Sida [1, 18]: 0; Plant response rating, Arrowleaf Sida [1, 12]: 0; Plant response rating, Arrowleaf Sida [1, 13]: 15; Plant response rating, Chickweed [3, 6]: 100; Plant response rating, Dayflower, VA [4, 14]: 30; Plant response rating, Dayflower, VA [4, 11]: 50; Plant response rating, Dayflower, VA [4, 15]: 60; Plant response rating, Dayflower, VA [4, 16]: 60; Plant response rating, Dayflower, VA [4, 17]: 70; Plant response rating, Dayflower, VA [4, 18]: 5; Plant response rating, Dayflower, VA [4, 12]: 35; Plant response rating, Dayflower, VA [4, 13]: 35
Cc1nn(-c2ccc(C(F)(F)F)c(F)c2)nc1Oc1ccnc(C(F)(F)F)c1 [Compound 148]	0	0	0	15	30	55	5	5	20	30	65	70	80	90	60	25	60	70	40	65	Plant response rating, Arrowleaf Sida [1, 12]: 0; Plant response rating, Arrowleaf Sida [1, 13]: 0; Plant response rating, Chickweed [3, 6]: 100; Plant response rating, Dayflower, VA [4, 12]: 0; Plant response rating, Dayflower, VA [4, 13]: 40; Plant response rating, Dayflower, VA [4, 7]: 90
CCc1nn(-c2ccc(C(F)(F)F)cc2)nc1Oc1ccnc(C(F)(F)F)c1 [Compound 169]	0	5	5	–	–	–	–	–	–	–	–	–	–	–	–	–	–	–	10	65	Plant response rating, Arrowleaf Sida [1, 19]: 50; Plant response rating, Arrowleaf Sida [1, 11]: 20; Plant response rating, Arrowleaf Sida [1, 15]: 20; Plant response rating, Arrowleaf Sida [1, 16]: 20; Plant response rating, Arrowleaf Sida [1, 17]: 30; Plant response rating, Arrowleaf Sida [1, 12]: 0; Plant response rating, Arrowleaf Sida [1, 13]: 0; Plant response rating, Dayflower, VA [4, 19]: 20; Plant response rating, Dayflower, VA [4, 11]: 10; Plant response rating, Dayflower, VA [4, 15]: 10; Plant response rating, Dayflower, VA [4, 16]: 10; Plant response rating, Dayflower, VA [4, 17]: 10; Plant response rating, Dayflower, VA [4, 12]: 0; Plant response rating, Dayflower, VA [4, 13]: 5; Plant response rating, Dayflower, VA [4, 7]: 75
